Converted amounts (≈) assume the structure as drawn.
Experiments:
BEAS2B cells = assay: Cell viability: resazurin assay; type: cell-based; conditions: at concentrations indicated in Table 4
Procedure: BEAS2B cells were seeded in 384-well plates (100 μL; 3000/well/; BD Falcon, Catalogue No 353962) in RPMI-LHC8 (RPMI-1640 and LHC8 media combined in equal proportions) one day before experimentation. For cell-free control wells, RPMI-LHC8 (100 μL) was added. Test compounds (0.5 μL of a DMSO solution) were added to give a final DMSO concentration of 0.5% using an Integra VIAFLO 96 (Integra, Zizers, Switzerland). BEAS2B cells were incubated with each test compound for 1 day (37° C./5% CO2 in RPMI-LHC8). After addition of resazurin stock solution (5 μL, 0.04%) the plates were incubated for a further 4 hr (37° C./5% CO2). The fluorescence of each well at 545 nm (excitation) and 590 nm (emission) was determined using a multi-scanner (Clariostar: BMG Labtech). The percentage loss of cell viability was calculated for each well relative to vehicle (0.5% DMSO) treatment. Where appropriate, a CC50 value was calculated from the concentration-response curve generated from the concentration-response curve for each test compound.

[1] = test system: Cladosporium herbarum NCPF2564; assay: Fungus panel screening, CLSI broth microdilution; type: cell-based
Procedure: Fungus panel screening was conducted by Eurofins Panlabs Inc. The MIC and MIC50 values of the test articles were determined following the guidelines of the CLSI: broth microdilution methods for yeast (CLSI M27-A2), (CLSI, 2002) and for filamentous fungi (CLSI M38-A), (CLSI, 2008).

TNFα = assay: Serum TNFα in Aspergillus fumigatus infected, immunocompromised, neutropenic mice; type: in vivo, A/J mice; conditions: for TNFα in serum, % Inhibition / Conc of Biomarkers, TNFα in serum: therapeutic; for Conc of Biomarkers, TNFα in serum: mean ± SEM, N = 6
Procedure: Aspergillus fumigatus (ATCC 13073 [strain: NIH 5233], American Type Culture Collection, Manassas, Va., USA) was grown on Malt agar (Nissui Pharmaceutical, Tokyo, Japan) plates for 6-7 days at RT (24±1° C.). Spores were aseptically dislodged from the agar plates and suspended in sterile distilled water with 0.05% Tween 80 and 0.1% agar. On the day of infection, spore counts were assessed by haemocytometer and the inoculum was adjusted to obtain a concentration of 1.67×10^8 spores mL^−1 of physiological saline. […] On day 0, animals were infected with the spore suspension (30 μL intra-nasally).
Test substances were administered intra-nasally (35 μL of a suspension (0.0032-10.0 mg/mL of drug substance in physiological saline) once daily, on days 1, 2 and 3 only (thereby representing a therapeutic treatment regimen). For extended prophylactic treatment, test compounds (35 μL of a suspension of 0.0032 or 0.016 mg/mL in physiological saline) were administered intra-nasally once daily for seven days. One group was dosed 30 min before infection on day 0 but not subsequently, while a second group was further dosed on days 1, 2 and 3 after infection. The effects of these treatment paradigms were compared with those obtained when treatment was restricted in other groups to either one day or 30 min before inoculation and then on days 1, 2 and 3 post infection in both cases. In a final group, dosing was limited still further with animals dosed twice, one day and 30 min before infection only.
Animal body weights were monitored daily and at 6 hr after the last dose of drug was administered on day 3, the animals were anesthetised, the tracheas cannulated and BALF blood and lung tissue were collected. The levels of IL-6 and TNFα in serum were determined using Quantikine® mouse IL-6 or TNF-α ELISA kit (R&D systems, Inc., Minneapolis, Minn., USA) respectively. Aspergillus GM in serum was determination using Platelia GM-EIA kits (Bio-Rad Laboratories, Redmond, Wash., USA). Cut-off index (COI) was calculated by the formula: Cut-off index=OD in sample/OD in cut-off control provided in kit. For tissue fungal load assays, 100 mg of lung tissue was removed aseptically and homogenized in 0.2 mL of 0.1% agar in sterile distilled water. Serially diluted lung homogenates were plated on Malt agar plates (50 μL/plate), and incubated at 24±1° C. for 72 to 96 h. The colonies of A. fumigatus on each plate were counted and the fungal titre presented herein as CFUs per gram of lung tissue.

Cc1cc(N2CCN(c3ccc(C(=O)N[C@H]4CCCC[C@@H]4O)cc3)CC2)ccc1OC[C@@H]1CO[C@@](Cn2cncn2)(c2ccc(F)cc2F)C1 [Compound (Ia), 4-(4-(4-(((3R,5R)-5-((1H-1,2,4-triazol-1-yl)methyl)-5-(2,4-difluorophenyl)tetrahydrofuran-3-yl)methoxy)-3-methylphenyl)piperazin-1-yl)-N-((1S,2S)-2-hydroxycyclohexyl) benzamide]
effect on the viability of BEAS2B bronchial epithelial cells (BEAS2B cells): no or little effect
MIC50 ([1]; 50% inhibition by visual inspection (CLSI)): 0.016 µg/mL (≈ 0.0233 µM)
MIC ([1]; 100% inhibition by visual inspection (CLSI), read-out: MIC100): 0.016 µg/mL (≈ 0.0233 µM)
TNFα in serum, % Inhibition (TNFα; Drug Conc 3.2 μg/mL): 20%
Conc of Biomarkers, TNFα in serum (TNFα; Drug Conc 3.2 μg/mL): 28.1 ± 13.8 pg/mL
TNFα in serum, % Inhibition (TNFα; Drug Conc 16 μg/mL): 38%
Conc of Biomarkers, TNFα in serum (TNFα; Drug Conc 16 μg/mL): 21.8 ± 14.6 pg/mL
TNFα in serum, % Inhibition (TNFα; Drug Conc 80 μg/mL): 87%
Conc of Biomarkers, TNFα in serum (TNFα; Drug Conc 80 μg/mL): 4.7 ± 1.0 pg/mL
ID50 Values for biomarkers indicated, TNFα (TNFα; serum, title: Therapeutic Treatment): 27 µg/mL

From US10513511B2, “Aqueous suspension formulation comprising 4-(4-(4-(((3R,5R)-5-((1H-1,2,4-triazol-1-yl)methyl)-5-(2,4-difluoro-phenyl)tetrahydrofuran-3-yl)methoxy)-3-methylphenyl) or a pharmaceutically acceptable salt thereof” (PULMOCIDE LIMITED, priority 2015, dated 2019)
